From US8865756B2, “Inhibitors of HCV NS5A” (Presidio Pharmaceuticals, Inc., priority 2008, dated 2014)

system: HCV 1b_Huh-Luc/Neo-ET cell line persistently expressing a bicistronic genotype 1b replicon in Huh 7 cells; assay: HCV replicon assay (luciferase readout); type: cell-based; settings: Hepatitis C virus, Huh-7, 72 h, read-out: Inhibition of HCV genotype 1b
Method in brief: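 Huh 7 cells carrying a genotype 1b luciferase/neo replicon treated in triplicate for 72 h, then luciferase activity measured. Signal expressed as % of control; EC50 from four-parameter logistic fit, determined several times.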

COC(=O)N[C@H](C(=O)N1CCC[C@H]1c1ncc(-c2ccc(C#Cc3ccc(-c4cnc([C@@H]5CCCN5C(=O)[C@@H](NC(=O)OC)[C@@H](C)OC)[nH]4)cc3)cc2)[nH]1)[C@@H](C)OC [Compound 284] and COC(=O)N[C@H](C(=O)N1CCC[C@H]1c1ncc(-c2ccc(C#Cc3ccc(-c4cnc([C@@H]5CCCN5C(=O)[C@@H](NC(=O)OC)C(C)C)[nH]4)cc3)cc2)[nH]1)C(C)C [Compound 266] cannot be ordered by EC50: less than 1 nM for the first, less than 1 nM for the second.

COC(=O)N[C@@H](C(=O)N1CCC[C@H]1c1ncc(-c2ccc(C#Cc3ccc(-c4cnc([C@@H]5CCCN5C(=O)[C@H](NC(=O)N5CCC[C@H](O)C5)c5ccccc5)[nH]4)cc3)cc2)[nH]1)c1ccccc1 [Compound 263] and COC(=O)N[C@@H](C(=O)N1CCC[C@H]1c1ncc(-c2ccc(C#Cc3ccc(-c4cnc([C@@H]5CCCN5C(=O)[C@H](NC(=O)N5CC[C@@H](O)C5)c5ccccc5)[nH]4)cc3)cc2)[nH]1)c1ccccc1 [Compound 268] cannot be ordered by EC50: less than 1 nM for the first, less than 1 nM for the second.

COC(=O)N[C@H](C(=O)N1CCC[C@H]1c1ncc(-c2ccc(C#Cc3ccc(-c4cnc([C@@H]5CCCN5C(=O)[C@@H](NC(=O)OC)[C@@H](C)O)[nH]4)cc3)cc2)[nH]1)[C@@H](C)O [Compound 283] and COC(=O)N[C@H](C(=O)N1CCC[C@H]1c1ncc(-c2ccc(C#Cc3ccc(-c4cnc([C@@H]5CCCN5C(=O)[C@H](NC(=O)OC)c5ccccc5)[nH]4)cc3)cc2)[nH]1)C(C)C [Compound 1002] cannot be ordered by EC50: less than 1 nM for the first, less than 1 nM for the second.

O=C([C@@H](c1ccccc1)N1CCCC1)N1CCC[C@H]1c1ncc(-c2ccc(C#Cc3ccc(-c4cnc([C@@H]5CCCN5C(=O)[C@@H](c5ccccc5)N5CCCC5)[nH]4)cc3)cc2)[nH]1 [Compound 194] and O=C([C@H](O)c1ccccc1)N1CCC[C@H]1c1ncc(-c2ccc(C#Cc3ccc(-c4cnc([C@@H]5CCCN5C(=O)[C@H](O)c5ccccc5)[nH]4)cc3)cc2)[nH]1 [Compound 157] cannot be ordered by EC50: less than 1 nM for the first, less than 1 nM for the second.

COC(=O)N[C@@H](C(=O)N1CCC[C@H]1c1ncc(C#Cc2ccc3nc([C@@H]4CCCN4C(=O)[C@H](NC(=O)OC)c4ccccc4)[nH]c3c2)[nH]1)c1ccccc1 [Compound 700] and CC(=O)N[C@@H](C(=O)N1CCC[C@H]1c1ncc(C#Cc2ccc(-c3cnc([C@@H]4CCCN4C(=O)[C@H](NC(C)=O)c4ccccc4)[nH]3)cc2)[nH]1)c1ccccc1 [Compound 109] cannot be ordered by EC50: less than 1 nM for the first, less than 1 nM for the second.

COC(=O)N[C@H](C(=O)N1CCC[C@H]1c1ncc(-c2ccc(C#Cc3ccc4nc([C@@H]5CCCN5C(=O)[C@@H](NC(=O)OC)C(C)C)[nH]c4c3)nc2)[nH]1)C(C)C [Compound 1033] and COC(=O)N[C@H](C(=O)N1CCC[C@H]1c1ncc(-c2ccc(C#Cc3ccc4nc([C@@H]5CCCN5C(=O)[C@@H](NC(=O)OC)C(C)C)[nH]c4c3)cc2)[nH]1)C(C)C [Compound 802] cannot be ordered by EC50: less than 1 nM for the first, less than 1 nM for the second.

COC(=O)N[C@H](C(=O)N1CCC[C@H]1c1nc(-c2ccc3cc(C#Cc4cnc([C@@H]5CCCN5C(=O)[C@@H](NC(=O)OC)C5CCOCC5)[nH]4)ccc3c2)c[nH]1)C(C)C [Compound 1079] and COC(=O)N[C@H](C(=O)N1CCC[C@H]1c1ncc(C#Cc2ccc(-c3cnc([C@@H]4CCCN4C(=O)[C@@H](NC(=O)OC)C(C)C)[nH]3)cc2)[nH]1)C(C)C [Compound 134] cannot be ordered by EC50: less than 1 nM for the first, less than 1 nM for the second.

COC(=O)N[C@@H](C)C(=O)N1CCC[C@H]1c1ncc(-c2ccc(C#Cc3ccc4nc([C@@H]5CCCN5C(=O)[C@H](C)NC(=O)OC)[nH]c4c3)cc2)[nH]1 [Compound 1028] and COC(=O)N[C@H](C(=O)N1CCC[C@H]1c1ncc(-c2ccc(C#Cc3ccc4nc([C@@H]5CCCN5C(=O)[C@H](NC(=O)OC)C(C)C)[nH]c4c3)cc2)[nH]1)C(C)C [Compound 1054] cannot be ordered by EC50: less than 1 nM for the first, less than 1 nM for the second.

COC(=O)N[C@@H](C(=O)N1CCC[C@H]1c1ncc(-c2ccc(C#Cc3ccc(-c4cnc([C@@H]5CCCN5C(=O)[C@H](OC)c5ccccc5)[nH]4)cc3)cc2)[nH]1)c1ccccc1 [Compound 179] and COC(=O)N[C@@H](C(=O)N1CCC[C@H]1c1ncc(-c2ccc(C#Cc3ccc(-c4cnc([C@@H]5CCCN5C(=O)[C@H](NC(=O)OC)c5ccccc5)[nH]4)cc3)cc2)[nH]1)c1ccccc1 [Compound 156] cannot be ordered by EC50: less than 1 nM for the first, less than 1 nM for the second.

COC(=O)N[C@@H](C(=O)N1CCC[C@H]1c1ncc(-c2ccc(C#Cc3ccc(-c4cnc([C@@H]5CCCN5C(=O)NCc5ccccc5)[nH]4)cc3)cc2)[nH]1)c1ccccc1 [Compound 197] and COC(=O)N[C@@H](C(=O)N1CCC[C@H]1c1ncc(-c2ccc(C#Cc3ccc(-c4cnc([C@@H]5CCCN5C(=O)[C@H](NC(=O)N5CCC[C@@H]5CO)c5ccccc5)[nH]4)cc3)cc2)[nH]1)c1ccccc1 [Compound 254] cannot be ordered by EC50: less than 1 nM for the first, less than 1 nM for the second.

First: COC(=O)N[C@@H](CC(N)=O)C(=O)N1CCC[C@H]1c1ncc(-c2ccc(C#Cc3ccc4nc([C@@H]5CCCN5C(=O)[C@H](CC(N)=O)NC(=O)OC)[nH]c4c3)cc2)[nH]1 [Compound 1046]
Second: COC(=O)N[C@@H](CC(=O)N1CCC[C@H]1c1ncc(-c2ccc(C#Cc3ccc4nc([C@@H]5CCCN5C(=O)C[C@H](NC(=O)OC)C(C)C)[nH]c4c3)cc2)[nH]1)C(C)C [Compound 1064]
The EC50 of the first is lower: 1 to 9.9 nM for the first, 10 to 999 nM for the second. The first is the more potent here.

COC(=O)N[C@@H](C(=O)N[C@@H](C)c1ncc(-c2ccc(C#Cc3ccc(-c4cnc([C@@H]5CCCN5C(=O)[C@H](NC(=O)OC)c5ccccc5)[nH]4)cc3)cc2)[nH]1)c1ccccc1 [Compound 279] and COC(=O)N[C@@H](C(=O)N1CCC[C@H]1c1ncc(-c2ccc(C#Cc3ccc(-c4nnc([C@@H]5CCCN5C(=O)[C@H](NC(=O)OC)c5ccccc5)[nH]4)cc3)cc2)[nH]1)c1ccccc1 [Compound 247] cannot be ordered by EC50: less than 1 nM for the first, less than 1 nM for the second.

Compared with CC(C)[C@@H](NC(=O)C1CC1)C(=O)N1CCC[C@H]1C(=O)NCc1ccc(C#Cc2cnc([C@@H]3CCCN3C(=O)[C@H](NC(=O)C3CC3)C(C)C)[nH]2)cc1 [Compound 122], CC(C)[C@@H](NC(=O)C1CC1)C(=O)N1CCC[C@H]1c1ncc(C#Cc2ccc(C#Cc3cnc([C@@H]4CCCN4C(=O)[C@H](NC(=O)C4CC4)C(C)C)[nH]3)cc2)[nH]1 [Compound 302] is higher in EC50: 1 to 9.9 nM for the first, greater than 1000 nM for the second. The first is the more potent here.

First: CC(C)[C@H](NC(=O)N1CCC(O)CC1)C(=O)N1CCC[C@H]1c1ncc(-c2ccc(C#Cc3ccc(-c4cnc([C@@H]5CCCN5C(=O)[C@@H](NC(=O)N5CCC(O)CC5)C(C)C)[nH]4)cc3)cc2)[nH]1 [Compound 286]
Second: CC(C)[C@H](NC(=O)N1CC[C@H](O)C1)C(=O)N1CCC[C@H]1c1ncc(-c2ccc(C#Cc3ccc(-c4cnc([C@@H]5CCCN5C(=O)[C@@H](NC(=O)N5CC[C@H](O)C5)C(C)C)[nH]4)cc3)cc2)[nH]1 [Compound 988]
The EC50 of the first is higher: greater than 1000 nM for the first, 10 to 999 nM for the second. The second is the more potent here.

CC(C)(C)OC(=O)N[C@@H](C(=O)N1CCC[C@H]1c1ncc(C#Cc2ccc(C#Cc3cnc([C@@H]4CCCN4C(=O)[C@H](NC(=O)OC(C)(C)C)c4ccccc4)[nH]3)cc2)[nH]1)c1ccccc1 [Compound 300] and CCN(CC)[C@@H](C(=O)N1CCC[C@H]1c1ncc(C#Cc2ccc(C#Cc3cnc([C@@H]4CCCN4C(=O)[C@H](NC(=O)OC)c4ccccc4)[nH]3)cc2)[nH]1)c1ccccc1 [Compound 315] cannot be ordered by EC50: less than 1 nM for the first, less than 1 nM for the second.

O=C(NCC(=O)N1CCC[C@H]1c1ncc(C#Cc2ccc(-c3cnc([C@@H]4CCCN4C(=O)CNC(=O)C4CC4)[nH]3)cc2)[nH]1)C1CC1 [Compound 113] and COC(=O)N1CCC[C@H]1C(=O)N1CCC[C@H]1c1ncc(-c2ccc(C#Cc3ccc4nc([C@@H]5CCCN5C(=O)[C@@H]5CCCN5C(=O)OC)[nH]c4c3)cc2)[nH]1 [Compound 1063] fall in the same range of EC50: 10 to 999 nM for the first, 10 to 999 nM for the second.

First: O=C(N[C@@H](C(=O)N1CCC[C@H]1c1nc(-c2ccc3cc(C#Cc4cnc([C@@H]5CCCN5C(=O)[C@H](NC(=O)N5CCOCC5)c5ccccc5)[nH]4)ccc3c2)c[nH]1)c1ccccc1)N1CCOCC1 [Compound 808]
Second: O=C(N[C@@H](C(=O)N1CCC[C@H]1c1nc(-c2ccc3cc(C#Cc4cnc([C@@H]5CCCN5C(=O)[C@H](NC(=O)N5CC[C@@H](O)C5)c5ccccc5)[nH]4)ccc3c2)c[nH]1)c1ccccc1)N1CC[C@@H](O)C1 [Compound 807]
The EC50 of the first is lower: less than 1 nM for the first, 1 to 9.9 nM for the second.

COC(=O)N[C@H](C(=O)N1CCC[C@H]1c1ncc(-c2ccc(C#Cc3ccc(-c4cnc([C@@H]5CCCN5C(=O)[C@@H](c5ccccc5)N5CCC(C)(O)CC5)[nH]4)cc3)cc2)[nH]1)C(C)C [Compound 970] and CN(C)[C@@H](C(=O)N1CCC[C@H]1c1ncc(-c2ccc(C#Cc3ccc(-c4cnc([C@@H]5CCCN5C(=O)[C@H](NC(=O)C5CC5)c5ccccc5)[nH]4)cc3)cc2)[nH]1)c1ccccc1 [Compound 215] cannot be ordered by EC50: less than 1 nM for the first, less than 1 nM for the second.

COC(=O)N[C@@H](C(=O)N1CCC[C@H]1c1ncc(-c2ccc(C#Cc3cnc([C@@H]4CCCN4C(=O)[C@@H](c4ccccc4)N(C)C)[nH]3)cc2)[nH]1)c1ccccc1 [Compound 128] and CC1(O)CCN(C(=O)N[C@@H](C(=O)N2CCC[C@H]2c2ncc(C#Cc3ccc(-c4ccc(-c5cnc([C@@H]6CCCN6C(=O)[C@H](NC(=O)N6CCC(C)(O)CC6)c6ccccc6)[nH]5)cc4)cc3)[nH]2)c2ccccc2)CC1 [Compound 870] cannot be ordered by EC50: less than 1 nM for the first, less than 1 nM for the second.

O=C(N[C@@H](C(=O)N1CCC[C@H]1c1ncc(-c2ccc(C#Cc3ccc(-c4cnc([C@@H]5CCCN5C(=O)[C@H](NC(=O)N5CC[C@H](O)C5)c5ccccc5)[nH]4)cc3)cc2)[nH]1)c1ccccc1)N1CC[C@H](O)C1 [Compound 245] and COC(=O)N[C@H](C(=O)N[C@@H](C)c1ncc(-c2ccc(C#Cc3ccc(-c4cnc([C@@H]5CCCN5C(=O)[C@@H](NC(=O)OC)[C@@H](C)O)[nH]4)cc3)cc2)[nH]1)[C@@H](C)O [Compound 291] cannot be ordered by EC50: less than 1 nM for the first, less than 1 nM for the second.

COC(=O)N[C@H](C(=O)N1CCC[C@H]1c1ncc(-c2ccc(C#Cc3ccc(-c4cnc([C@H](C)NC(=O)[C@@H](C(C)C)N(C)C)[nH]4)cc3)cc2)[nH]1)C(C)C [Compound 982] and CC(C)[C@@H](NC(=O)OC(C)(C)C)C(=O)N1CCC[C@H]1C(=O)NCCc1ccc(C#Cc2cnc([C@@H]3CCCN3C(=O)[C@H](NC(=O)OC(C)(C)C)C(C)C)[nH]2)cc1 [Compound 126] fall in the same range of EC50: 10 to 999 nM for the first, 10 to 999 nM for the second.
